US20090036485A1, “Quinoline derivatives” (priority 2004, published 2009)

Columns and labels:
PDGFRα tyrosine kinase = target: T1, PDGFRα tyrosine kinase (Homo sapiens, UniProt P16234); assay: In vitro enzyme assay (ELISA), PDGFRα tyrosine kinase; assay type: biochemical; conditions: Test (a); ATP 14 μM; read-out: IC50 versus PDGFRα tyrosine kinase
T1 construct: PDGFRα, PDGFRβ and KDR receptor cytoplasmic domains, obtained by expression of recombinant protein in insect cells; purchased Upstate Biotechnology Inc. 14-467; host or cells: Sf9 insect cells
T1 sequence (P16234 550-1089 limits assumed): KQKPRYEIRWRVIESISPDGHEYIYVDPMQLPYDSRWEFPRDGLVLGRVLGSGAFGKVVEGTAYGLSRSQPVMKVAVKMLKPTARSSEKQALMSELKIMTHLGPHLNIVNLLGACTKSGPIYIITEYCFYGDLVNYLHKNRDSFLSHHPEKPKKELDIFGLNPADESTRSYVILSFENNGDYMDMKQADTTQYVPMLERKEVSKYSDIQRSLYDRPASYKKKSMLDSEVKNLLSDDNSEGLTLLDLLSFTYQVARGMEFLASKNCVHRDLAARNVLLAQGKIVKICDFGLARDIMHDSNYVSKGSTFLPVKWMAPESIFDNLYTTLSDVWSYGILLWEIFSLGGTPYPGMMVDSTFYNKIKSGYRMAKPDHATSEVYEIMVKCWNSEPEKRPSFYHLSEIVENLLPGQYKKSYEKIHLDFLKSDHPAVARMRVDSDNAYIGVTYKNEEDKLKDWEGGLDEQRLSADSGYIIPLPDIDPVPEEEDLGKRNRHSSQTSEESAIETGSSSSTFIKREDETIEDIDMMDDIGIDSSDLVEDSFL
Protocol: The ability of test compounds to inhibit the phosphorylation of a tyrosine containing polypeptide substrate by the tyrosine kinase enzymes PDGFRα, PDGFRβ and KDR was assessed using conventional ELISA assays.
DNA encoding the PDGFRα, PDGFRβ or KDR receptor cytoplasmic domains may be obtained by total gene synthesis (International Biotechnology Lab., 1987, 5(3), 19-25) or by cloning. The DNA fragments may be expressed in a suitable expression system to obtain polypeptide with tyrosine kinase activity. For example, PDGFRα, PDGFRβ and KDR receptor cytoplasmic domains, obtained by expression of recombinant protein in insect cells, can be shown to display intrinsic tyrosine kinase activity. In the case of the VEGF receptor KDR (Genbank Accession No. L04947), a DNA fragment encoding most of the cytoplasmic domain, commencing with methionine 806 and including the termination codon may be cloned into a baculovirus transplacement vector [for example pAcYM1 (see The Baculovirus Expression System: A Laboratory Guide, L. A. King and R. D. Possee, Chapman and Hall, 1992) or pAc360 or pBlueBacHis (available from Invitrogen Corporation)]. This recombinant construct may be co-transfected into insect cells [for example Spodoptera frugiperda 21(Sf21) or Spodoptera frugiperda 9(Sf9)] with viral DNA (for example Pharmingen BaculoGold) to prepare recombinant baculovirus. […]

PDGFRβ tyrosine kinase = target: T2, PDGFRβ tyrosine kinase (Homo sapiens, UniProt P09619); assay: In vitro enzyme assay (ELISA), PDGFRβ tyrosine kinase; assay type: biochemical
T2 construct: PDGFRα, PDGFRβ and KDR receptor cytoplasmic domains, obtained by expression of recombinant protein in insect cells; purchased Upstate Biotechnology Inc. 14-463; host or cells: Sf9 insect cells
T2 sequence (P09619 554-1106 limits assumed): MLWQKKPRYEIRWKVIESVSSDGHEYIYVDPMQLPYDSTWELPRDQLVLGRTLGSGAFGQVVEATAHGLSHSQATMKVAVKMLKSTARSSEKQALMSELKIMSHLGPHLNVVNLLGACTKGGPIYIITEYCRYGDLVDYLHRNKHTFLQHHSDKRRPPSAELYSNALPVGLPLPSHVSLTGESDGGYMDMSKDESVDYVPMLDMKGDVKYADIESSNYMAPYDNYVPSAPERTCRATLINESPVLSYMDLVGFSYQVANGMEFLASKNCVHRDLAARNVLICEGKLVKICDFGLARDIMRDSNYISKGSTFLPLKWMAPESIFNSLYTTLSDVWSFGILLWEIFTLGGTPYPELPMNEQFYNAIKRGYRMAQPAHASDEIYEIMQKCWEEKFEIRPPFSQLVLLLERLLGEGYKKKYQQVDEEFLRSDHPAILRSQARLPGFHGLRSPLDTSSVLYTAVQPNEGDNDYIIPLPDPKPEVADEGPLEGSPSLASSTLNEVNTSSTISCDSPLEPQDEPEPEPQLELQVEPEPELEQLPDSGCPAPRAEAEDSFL
Protocol: (§1) The excess of substrate solution was discarded and the wells were washed in turn with PBS containing 0.05% v/v Tween 20 (PBST; 300 μl/well) and twice with Hepes pH7.4 buffer (50 mM, 300 μl/well) before being blotted dry.
Aliquots (25 μl) of each dilution of test compound were transferred to wells in the washed assay plates. “Maximum” control wells contained diluted DMSO instead of compound. Aliquots (25 μl) of an aqueous manganese chloride solution (40 mM) containing adenosine-5′-triphosphate (ATP) was added to all test wells except the “blank” control wells which contained magnesium chloride without ATP.
Each kinase enzyme was diluted immediately prior to use with an enzyme diluent comprising 100 mM Hepes pH7.4 buffer, 0.1 mM sodium orthovanadate, 0.1% Triton X-100 and 0.2 mM dithiothreitol. Aliquots (50 μl) of freshly diluted enzyme were added to each well and the plates were agitated at ambient temperature for 20 minutes. […] The plates were agitated at ambient temperature for about 20 minutes until the optical density value of the “maximum” control wells, as measured at 405 nm using a plate reading spectrophotometer, was approximately 1.0.

KDR tyrosine kinase = target: T3, KDR tyrosine kinase (Homo sapiens, UniProt P35968); assay: In vitro enzyme assay (ELISA), KDR tyrosine kinase; assay type: biochemical; conditions: Test (a); ATP 8 μM; read-out: IC50 versus KDR tyrosine kinase
T3 construct: encoding most of the cytoplasmic domain, commencing with methionine 806 and including the termination codon; made in house; host or cells: Sf9 insect cells (baculovirus)
T3 sequence (P35968 786-1356 limits assumed): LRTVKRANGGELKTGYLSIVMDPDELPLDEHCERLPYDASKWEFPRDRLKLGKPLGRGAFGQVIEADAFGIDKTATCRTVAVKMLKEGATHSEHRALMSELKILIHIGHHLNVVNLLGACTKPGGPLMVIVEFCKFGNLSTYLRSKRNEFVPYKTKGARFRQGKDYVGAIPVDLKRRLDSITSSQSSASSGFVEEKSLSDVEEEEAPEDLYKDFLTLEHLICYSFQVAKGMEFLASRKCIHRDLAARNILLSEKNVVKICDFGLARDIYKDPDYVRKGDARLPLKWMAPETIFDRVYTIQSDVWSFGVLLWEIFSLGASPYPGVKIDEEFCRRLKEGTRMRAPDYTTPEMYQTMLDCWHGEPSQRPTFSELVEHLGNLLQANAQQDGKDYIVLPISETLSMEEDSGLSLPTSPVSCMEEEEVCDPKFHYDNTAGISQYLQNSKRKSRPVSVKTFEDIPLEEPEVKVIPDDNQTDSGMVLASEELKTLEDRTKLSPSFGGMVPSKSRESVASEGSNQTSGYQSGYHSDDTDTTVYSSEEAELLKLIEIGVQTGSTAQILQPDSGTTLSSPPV
Protocol: For expression, Sf9 cells were infected with plaque-pure KDR recombinant virus and harvested 48 hours later. […] The suspension was centrifuged for 10 minutes at 13,000 rpm at 4° C. The supernatant (stock enzyme solution) was removed and stored in aliquots at −70° C.
as §1
Aliquots (25 μl) of each dilution of test compound were transferred to wells in the washed assay plates. “Maximum” control wells contained diluted DMSO instead of compound. […]
Each kinase enzyme was diluted immediately prior to use with an enzyme diluent comprising 100 mM Hepes pH7.4 buffer, 0.1 mM sodium orthovanadate, 0.1% Triton X-100 and 0.2 mM dithiothreitol. […] The plates were agitated at ambient temperature for about 20 minutes until the optical density value of the “maximum” control wells, as measured at 405 nm using a plate reading spectrophotometer, was approximately 1.0.

phospho-Tyr751 PDGFRβ = target: T4, phospho-Tyr751 PDGFRβ (Homo sapiens, UniProt P09619); assay: In vitro phospho-Tyr751 PDGFRβ ELISA assay in MG63 osteosarcoma cells; assay type: cell-based; conditions: Test (b); MG63 cells stimulated with PDGFBB; read-out: IC50 versus phospho-Tyr751 PDGFRβ
T4 construct: phosphorylation of PDGFR expressed on MG63 osteosarcoma cells; endogenous in cells; host or cells: MG63 osteosarcoma cells
T4 sequence (P09619 33-1106): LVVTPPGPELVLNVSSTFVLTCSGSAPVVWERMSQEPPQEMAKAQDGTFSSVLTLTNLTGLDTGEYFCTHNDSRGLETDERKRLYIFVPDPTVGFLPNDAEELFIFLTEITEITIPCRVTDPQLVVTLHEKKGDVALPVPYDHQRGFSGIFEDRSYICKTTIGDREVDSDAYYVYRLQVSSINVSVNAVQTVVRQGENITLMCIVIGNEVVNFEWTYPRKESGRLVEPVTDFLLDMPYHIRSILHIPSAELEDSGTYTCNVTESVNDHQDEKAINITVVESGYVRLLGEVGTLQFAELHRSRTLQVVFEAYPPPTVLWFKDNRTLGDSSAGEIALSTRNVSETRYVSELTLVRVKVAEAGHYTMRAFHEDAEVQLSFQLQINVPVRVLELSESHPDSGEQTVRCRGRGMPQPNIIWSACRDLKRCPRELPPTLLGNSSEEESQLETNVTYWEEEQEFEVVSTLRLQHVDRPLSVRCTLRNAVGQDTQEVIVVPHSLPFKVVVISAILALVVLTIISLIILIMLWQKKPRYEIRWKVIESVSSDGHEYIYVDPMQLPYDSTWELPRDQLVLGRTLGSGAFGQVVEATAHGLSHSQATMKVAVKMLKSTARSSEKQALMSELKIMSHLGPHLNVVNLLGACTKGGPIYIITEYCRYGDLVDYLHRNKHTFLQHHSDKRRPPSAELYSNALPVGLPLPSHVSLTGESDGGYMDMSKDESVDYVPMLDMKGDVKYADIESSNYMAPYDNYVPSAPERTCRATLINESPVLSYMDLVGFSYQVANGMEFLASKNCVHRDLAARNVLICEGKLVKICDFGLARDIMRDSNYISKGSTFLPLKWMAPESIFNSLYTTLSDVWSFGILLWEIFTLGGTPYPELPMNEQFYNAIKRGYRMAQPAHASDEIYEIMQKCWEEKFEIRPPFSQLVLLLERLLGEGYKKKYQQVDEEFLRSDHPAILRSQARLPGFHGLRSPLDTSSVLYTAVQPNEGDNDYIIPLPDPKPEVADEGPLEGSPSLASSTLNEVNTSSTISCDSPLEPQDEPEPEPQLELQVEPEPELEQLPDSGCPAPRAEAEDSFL
Protocol: This assay uses a conventional ELISA method to determine the ability of test compounds to inhibit phosphorylation of tyrosine in PDGFRβ.
The cells were incubated overnight at 37° C. with 7.5% CO2 to allow the cells to adhere to the wells.
The cells were incubated for 90 minutes at 37° C. with 7.5% CO2.
The resultant cells were stimulated with PDGFBB using the following procedure. […] The cells were incubated at 37° C. with 7.5% CO2 for 5 minutes. […] The resultant tissue culture plates were shaken for 5 minutes at ambient temperature to ensure full lysis and then frozen at −20° C. until required.
The wells were washed 5 times (1 minute soak each time) with 300 μl per well of PBST. The wells were treated with 50 μl of 3% BSA in PBST at ambient temperature for 1 hour and subsequently washed twice with 300 μl per well of PBST.
The tissue culture plates with frozen cell lysate were allowed to warm to 0° C. […] Aliquots (50 μl) of chemiluminescent substrate solution were added to each of the wells, the plates were agitated for 2 minutes and luminescence was read on a SpectraFluor Plus plate reader (Tecan UK Ltd., Reading, Berkshire, UK). Analysis for each of the compounds was completed by determining a ratio of the ‘phospho antibody’ plate reading to the ‘total antibody’ plate reading for each test sample and these ratios were plotted to determine the IC50 value of each test compound.

- IC50 (PDGFRα tyrosine kinase): ~500 nM
- IC50 (PDGFRβ tyrosine kinase): ~100 nM
- IC50 (KDR tyrosine kinase): ~6000 nM
- IC50 (phospho-Tyr751 PDGFRβ): ~2 nM
SMILES: COc1cc2nccc(Oc3cnn(CC(=O)Nc4cccc(F)c4)c3)c2cc1C#N [Example 1, N-(3-fluorophenyl)-2-[4-(6-cyano-7-methoxyquinolin-4-yloxy)pyrazol-1-yl]acetamide]
